Literature values in US20210338693A1, “Gel Compositions for Transdermal Delivery to Maximize Drug Concentrations in the Stratum Corneum and Serum and Methods of Use Thereof” (Viramal Limited, priority 2016, published 2021).

Conditions: in vivo

## C[C@]12CC[C@H]3[C@@H](CCC4=CC(=O)CC[C@@]43C)[C@@H]1CC[C@@H]2O [Testosterone]
  half-life: 1.4 h
